The subject of data set [1] is mongrel dogs. Nature of the data set: Myocardial oxygen consumption, left coronary arteries perfused with arterial blood at constant pressure, anesthetized dogs. The following applies: 10 mg./kg. intravenously prior to perfusion; 5 dogs; mean control 11.7 ± 1.9; statistically significant (p<0.05) reduction. The class given is in vivo, dog. As to the method: A group of 5 mongrel dogs is anesthetized and thoractomized by the procedure described in the preceding assay and the left anterior descending and circumflex coronary arteries are cannulated and perfused with arterial blood at a constant pressure. Coronary arterial and venous blood samples are collected and their oxygen content measured. Myocardial oxygen consumption is calculated and expressed as ml./min./100 g. of the left ventricle. the mean control oxygen consumption in these 5 animals is 11.7 ± 1.9.
In a second group of 5 animals, prepared as described above, the selected dose of the test compound is administered intravenously prior to perfusion. The myocardial oxygen consumption is calculated and compared with the corresponding value in the control group. A compound is rated active if it effects a statistically significant reduction in the myocardial oxygen consumption observed in the control group.

Data set [2] has as its system excised hearts perfused by donor dog. Description: Oxygen consumption of excised hearts perfused with whole blood from a donor dog. The class given is in vivo. The following applies: 10 mg./kg. intravenously to 5 donor dogs; value before treatment 3.1 ± 0.2; statistically significant (p<0.01) reduction. As to the method:
In a separate assay, hearts are excised from anesthetized animals and perfused via the aorta at a constant pressure with oxygenated whole blood supplied by a donor dog connected to the heart. Oxygen consumption is calculated and expressed as ml./min./100 g. of the myocardium. The donor dogs are then treated intravenously with the selected dose of the test compound and the mean oxygen consumption value again calculated. The test compound is rated active if it effects a statistically significant reduction in that value.

Data set [3] has as its system mongrel dogs. Nature of the data set: Epicardial ST segment elevation (ΣST) after 10-minute coronary artery branch occlusion in anesthetized dogs. The class given is in vivo, dog. The following applies: 10 mg./kg. intravenously 15 minutes prior to the second 10-minute occlusion; control ΣST 34.8 ± 4.9 mV. As to the method:
A group of 10 mongrel dogs, weighing 11-19 kg., is anesthetized by the intravenous administration of 30 mg./kg. of pentobarbital sodium and breathing maintained by means of a Harvard respirator. A thoractomy is performed through the fifth left intercostal space; the heart is suspended in a pericardial cradle; a branch of the left anterior descending coronary artery is dissected free and a suture placed under that vessel. Occlusion of that arterial branch is accomplished by passing the free ends of the suture through a short section of polyethylene tubing and pressing the tubing against the vessel while exerting traction on the free ends of the suture. Termination of the occlusion is achieved by releasing the suture and pulling the tube away from the vessel.
The degree of myocardial ischemic injury resulting from occlusion of the artery is determined by the epicardial electrocardiographic method described by Maroko et al., Circulation, 43, 67-82 (1971). […] All surface collateral vessels are ligated and the unipolar electrograms from the six epicardial leads and the Lead II electrocardiogram are recorded on a Grass model 7 polygraph. […]
The reproducibility of the method with respect to the magnitude of ΣST is determined by successive 10-minute occlusions in a group of five dogs. […]

The conditions of data set [4]: described by Lucchesi et al. 1968; undesirable side-effect of prior art compound; cited from earlier work.

In the case of `CC(C)[N+](C)(C)CC(O)COc1cccc2ccccc12` (stereo not shown) [1-(N-isopropyl-N-methylamino)-3-(1-naphthoxy)propan-2-ol methochloride], the myocardial oxygen consumption with mongrel dogs [1] was 7.6 ± 1.1 ml./min./100 g. of the left ve. In data set [2], the “mean oxygen consumption value” was 2.1 ± 0.1 ml./min./100 g. of the myocard. Also, the “sum of the ST segment elevation in the six epicardial leads (ΣST)” value in the data set with mongrel dogs [3] turned out to be 11.3 ± 2.1 mV.
Regarding `CC[N+](C)(CC)CC(O)COc1cccc2ccccc12` (stereo not shown) [1-(N,N-diethylamino)-3-(1-naphthoxy)propan-2-ol methiodide], the local anesthetic activity entry in data set [4] is given as “local anesthetic activity”.
